Results: patent publication US20190106721A1, “Method for the fermentative production of L-amino acids” (priority 2017, published 2019)
Values after ≈ are worked out from the molar mass of the structure shown.

Columns and labels:
Assay in all cases: Minimal inhibitory concentration test (MIC-Test) of lincomycin, serial dilution in liquid culture
[1] = system: DM1933_ΔlmrB::EcoRV/pVWEx1; format: cell-based, Corynebacterium glutamicum; settings: 20 h
Protocol: For this purpose a first well of a microliter plate was filled with 360 μl of BHI medium supplemented with 0.3 mM IPTG and 250 μg/ml lincomycin-hydrochloride. A volume of 180 μl was removed and placed into a second well previously filled with 180 μl BHI medium supplemented with 0.3 mM IPTG. Thus a second well containing BHI medium supplemented with 0.3 mM IPTG and 125 μg/ml lincomycin-hydrochloride was prepared. From said second well 180 ∞l were removed and placed into a third well previously filled with 180 μl BHI medium supplemented with 0.3 mM IPTG. These dilution steps were repeated several times to cover the concentration range mentioned above. Thus wells containing 180 μl of the respective test medium were obtained. […]
(§1) A preculture of the strain to be tested was made in BHI medium (as described under cultivation) supplemented with 250 μg/ml kanamycin in case of plasmid containing strains). […] After 20 h the optical densities were measured. […]
(§2) The MIC's of lincomycin for strains ATCC13032/pVWEx1; ATCC13032/pVWEx1_lmrB^ATCC14067; DM1933_ΔlmrB::EcoRV/pVWEx1 and DM1933_ΔlmrB::EcoRV/pVWEx1_lmrB^ATCC14067 constructed in example 8 were determined as described in materials and methods.
(§3) The MIC's of lincomycin for strains DM1933_ΔlmrB::EcoRV/pVWEx1 and DM1933_ΔlmrB::EcoRV/pVWEx1_lmrB^DM1547 constructed in examples 8 and 11 were determined as described in materials and methods.

[2] = system: DM1933_ΔlmrB::EcoRV/pVWEx1_lmrB^DM1547; format: cell-based; settings: Corynebacterium glutamicum, 20 h
Protocol: (§4) For this purpose a first well of a microliter plate was filled with 360 μl of BHI medium supplemented with 0.3 mM IPTG and 250 μg/ml lincomycin-hydrochloride. A volume of 180 μl was removed and placed into a second well previously filled with 180 μl BHI medium supplemented with 0.3 mM IPTG. Thus a second well containing BHI medium supplemented with 0.3 mM IPTG and 125 μg/ml lincomycin-hydrochloride was prepared. From said second well 180 ∞l were removed and placed into a third well previously filled with 180 μl BHI medium supplemented with 0.3 mM IPTG. These dilution steps were repeated several times to cover the concentration range mentioned above. Thus wells containing 180 μl of the respective test medium were obtained. A control medium without lincomycin-hydrochloride was included in the test procedure.
as §1, with “strains). The preculture was centrifuged and the cell pellet resuspended in 0.9% (w/v) NaCl solution to give an OD660 of 1.0.” for “strains).”
as §3

[3] = system: DM1933_ΔlmrB::EcoRV/pVWEx1_lmrB^ATCC14067; format: cell-based; settings: Corynebacterium glutamicum, ATCC14067, 20 h
Protocol: as §4
(§5) A preculture of the strain to be tested was made in BHI medium (as described under cultivation) supplemented with 250 μg/ml kanamycin in case of plasmid containing strains). The preculture was centrifuged and the cell pellet resuspended in 0.9% (w/v) NaCl solution to give an OD660 of 1.0. A volume of 20 μl of the suspension was used to inoculate the test medium contained in the wells. The micro titer plate was incubated at 300 rpm and 33° C. in an Infors HT Multitron standard incubator shaker from Infors GmbH (Bottmingen, Switzerland). After 20 h the optical densities were measured. The test medium having the lowest concentration of lincomycin-hydrochloride preventing growth of the culture is given as MIC.
as §2

[4] = system: ATCC13032/pVWEx1_lmrB^ATCC14067; format: cell-based; settings: Corynebacterium glutamicum, 20 h
Protocol: as §4, §5, §2

ATCC13032/pVWEx1 = format: cell-based; settings: Corynebacterium glutamicum; strain ATCC13032/pVWEx1; as lincomycin-hydrochloride; BHI medium with 0.3 mM IPTG, 20 h, 33° C.
Protocol: as §4, §5, §2

For CCC[C@@H]1C[C@@H](C(=O)N[C@@H]([C@H]2O[C@H](SC)[C@H](O)[C@@H](O)[C@H]2O)[C@@H](C)O)N(C)C1 [lincomycin, Lincomycin], the MIC ([1]; Corynebacterium glutamicum) was 7.8 µg/mL (≈ 19.2 µM), the MIC ([1]; strain DM1933_DlmrB/pVWEx1 (Table 25), as lincomycin-hydrochloride, BHI medium with 0.3 mM IPTG, 33° C.) was 7.8 µg/mL (≈ 19.2 µM) and the MIC [2] was 62.5 µg/mL (≈ 154 µM). It also gave an MIC [3] of 62.5 µg/mL (≈ 154 µM), an MIC [4] of 125 µg/mL (≈ 307 µM) and an MIC (ATCC13032/pVWEx1) of 15.6 µg/mL (≈ 38.4 µM).
